Experimental data published in ChEMBL document CHEMBL4190372, “Discovery of a Novel Oral Glucocorticoid Receptor Modulator (AZD9567) with Improved Side Effect Profile” (J Med Chem, 2018).
Values after ≈ are worked out from the molar mass of the structure shown.

Key:
[1] = Aqueous solubility of the compound; type: physicochemical; conditions: aqueous; read-out: solubility
[2] = Oral bioavailability in Beagle dog at 0.5 mg/kg; type: ADME, organism-based, Canis lupus familiaris; conditions: in vivo
[3] = system: Rattus norvegicus; test: Dose normalized AUC (0 to infinity) in Han-Wistar rat at 2.1 mg/kg, po; type: ADME, organism-based; conditions: in vivo
[4] = Terminal half life in Han-Wistar rat at 2.1 mg/kg, po; type: ADME, organism-based; conditions: in vivo, read-out: beta t1/2 (converted)
[5] = Tmax in Han-Wistar rat at 2.1 mg/kg, po; type: ADME, organism-based; conditions: in vivo
[6] = molecular target: T1, Mineralocorticoid receptor (Homo sapiens, UniProt P08235); test: Displacement of [3H]-aldosterone from human mineralocorticoid receptor LBD (729 to 984 residues) after 1 hr by scintillation proximity assay
T1 sequence (P08235 whole entry): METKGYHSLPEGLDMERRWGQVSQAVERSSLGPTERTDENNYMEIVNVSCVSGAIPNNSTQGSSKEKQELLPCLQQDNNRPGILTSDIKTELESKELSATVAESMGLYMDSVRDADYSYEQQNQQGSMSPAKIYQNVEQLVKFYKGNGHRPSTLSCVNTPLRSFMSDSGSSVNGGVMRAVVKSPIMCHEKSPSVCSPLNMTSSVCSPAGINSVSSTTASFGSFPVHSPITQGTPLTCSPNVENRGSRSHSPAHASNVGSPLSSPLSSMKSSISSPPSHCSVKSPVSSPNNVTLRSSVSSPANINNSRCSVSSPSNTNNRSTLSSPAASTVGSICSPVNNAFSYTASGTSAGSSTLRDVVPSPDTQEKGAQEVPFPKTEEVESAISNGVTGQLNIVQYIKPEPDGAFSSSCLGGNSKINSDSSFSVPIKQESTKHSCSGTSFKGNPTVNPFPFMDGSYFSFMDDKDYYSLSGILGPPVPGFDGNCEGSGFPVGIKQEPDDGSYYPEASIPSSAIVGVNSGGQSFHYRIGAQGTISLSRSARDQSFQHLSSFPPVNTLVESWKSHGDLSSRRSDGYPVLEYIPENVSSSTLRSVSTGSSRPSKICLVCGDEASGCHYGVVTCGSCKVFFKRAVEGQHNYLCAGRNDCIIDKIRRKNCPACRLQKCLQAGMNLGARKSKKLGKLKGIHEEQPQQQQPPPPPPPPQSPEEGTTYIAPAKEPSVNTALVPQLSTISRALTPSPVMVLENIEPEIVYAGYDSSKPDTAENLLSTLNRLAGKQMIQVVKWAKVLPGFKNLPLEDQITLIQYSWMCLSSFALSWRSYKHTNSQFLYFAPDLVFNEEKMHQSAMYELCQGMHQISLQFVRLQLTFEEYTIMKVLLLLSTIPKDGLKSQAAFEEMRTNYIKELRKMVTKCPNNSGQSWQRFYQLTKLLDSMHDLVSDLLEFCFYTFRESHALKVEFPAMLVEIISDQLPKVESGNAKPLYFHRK

[7] = system: Rattus norvegicus; test: Antiinflammatory activity in streptococcal cell wall reactivation Lewis rat model assessed as reduction of joint swelling at 0.3 mg/kg administered once daily for 8 days by oral gavage starting 1 day prior to streptococcal cell wall challenge measured during 6 days post challenge relative to control; type: functional; design: scale not given: the % may be the effect or the level left
[8] = Clearance in Han-Wistar rat at 0.8 mg/kg, iv; type: ADME, organism-based; conditions: in vivo
[9] = molecular target: T2, Glucocorticoid receptor (Homo sapiens, UniProt P04150)
T2 sequence (P04150 whole entry): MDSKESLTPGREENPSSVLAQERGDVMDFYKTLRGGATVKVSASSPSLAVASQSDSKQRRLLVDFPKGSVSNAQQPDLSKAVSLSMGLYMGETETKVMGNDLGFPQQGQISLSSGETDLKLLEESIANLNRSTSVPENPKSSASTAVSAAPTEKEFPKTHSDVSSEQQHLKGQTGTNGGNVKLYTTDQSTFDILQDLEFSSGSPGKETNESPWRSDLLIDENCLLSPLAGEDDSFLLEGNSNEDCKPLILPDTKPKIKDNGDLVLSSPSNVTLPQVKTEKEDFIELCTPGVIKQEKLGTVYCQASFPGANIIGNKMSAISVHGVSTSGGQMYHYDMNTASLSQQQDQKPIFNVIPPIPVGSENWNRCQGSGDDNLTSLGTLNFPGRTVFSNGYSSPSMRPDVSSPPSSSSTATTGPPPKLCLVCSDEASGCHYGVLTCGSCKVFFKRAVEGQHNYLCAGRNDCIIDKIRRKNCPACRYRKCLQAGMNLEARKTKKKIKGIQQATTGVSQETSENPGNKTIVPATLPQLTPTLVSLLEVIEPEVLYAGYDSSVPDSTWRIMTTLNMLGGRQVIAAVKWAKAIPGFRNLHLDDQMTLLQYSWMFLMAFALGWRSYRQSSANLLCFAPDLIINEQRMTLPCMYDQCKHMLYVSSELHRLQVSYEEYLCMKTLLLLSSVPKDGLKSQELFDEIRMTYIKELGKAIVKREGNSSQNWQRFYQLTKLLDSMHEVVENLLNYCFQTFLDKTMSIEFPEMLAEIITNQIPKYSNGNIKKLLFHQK
Description: Transrepression of GR in human whole blood assessed as inhibition of LPS-induced TNF-alpha release preincubated for 45 mins followed by LPS addition after 18 hrs by AlphaLISA method

[10] = molecular target: T3, Glucocorticoid receptor (Rattus norvegicus, UniProt P06536); test: Modulation of glucocorticoid receptor in rat whole blood
T3 sequence (P06536 whole entry): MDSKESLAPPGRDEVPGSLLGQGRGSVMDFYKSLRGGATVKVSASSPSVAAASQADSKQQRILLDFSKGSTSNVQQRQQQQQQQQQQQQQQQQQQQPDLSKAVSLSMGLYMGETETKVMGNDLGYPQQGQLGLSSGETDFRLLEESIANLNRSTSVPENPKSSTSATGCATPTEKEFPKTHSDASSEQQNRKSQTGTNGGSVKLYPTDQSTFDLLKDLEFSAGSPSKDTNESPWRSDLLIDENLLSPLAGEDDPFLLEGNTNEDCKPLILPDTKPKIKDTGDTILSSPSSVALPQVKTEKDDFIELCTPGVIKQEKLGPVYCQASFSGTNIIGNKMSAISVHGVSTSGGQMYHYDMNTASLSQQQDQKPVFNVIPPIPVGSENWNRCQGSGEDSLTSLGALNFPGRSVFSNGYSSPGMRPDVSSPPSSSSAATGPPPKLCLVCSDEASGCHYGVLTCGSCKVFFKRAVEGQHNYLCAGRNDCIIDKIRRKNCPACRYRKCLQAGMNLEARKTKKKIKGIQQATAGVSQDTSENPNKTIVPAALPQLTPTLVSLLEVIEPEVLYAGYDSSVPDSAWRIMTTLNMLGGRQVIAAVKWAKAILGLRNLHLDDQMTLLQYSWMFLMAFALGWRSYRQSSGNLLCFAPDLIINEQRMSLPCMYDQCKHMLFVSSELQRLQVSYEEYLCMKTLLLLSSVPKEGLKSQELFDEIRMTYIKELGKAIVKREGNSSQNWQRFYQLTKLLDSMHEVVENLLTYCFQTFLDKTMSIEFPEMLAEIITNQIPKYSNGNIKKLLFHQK

[11] = molecular target: T2, Glucocorticoid receptor; test: Displacement of fluormone RED from human full length glucocorticoid receptor after 4 hrs by fluorescence polarization assay
[12] = Terminal half life in Han-Wistar rat at 0.8 mg/kg, iv; type: ADME, organism-based; conditions: in vivo, read-out: beta t1/2 (converted)

solubility [1]: 55 µM (≈ 27.2 µg/mL) | bioavailability [2]: 48% | AUC/dose [3]: 5.2 µM·h | half-life [4]: 1.9 h | Tmax [5]: 2 h | IC50 [6]: > 38000 nM | clearance [8]: 4.5 mL/min/kg | IC50 [9]: 680 nM | IC50 [10]: 19 nM | IC50 [11]: 3.8 nM | half-life [12]: 2.3 h
SMILES: CC(C)[C@H](NC(=O)C(C)(F)F)[C@H](Oc1ccc2c(cnn2-c2ccc(=O)n(C)c2)c1)c1ccccc1 [MIZACORAT]
Activity [7]: 66%
